Test results: the supplement of paper PMC6045584
± gives the standard deviation of the averaged measurements.

Columns and labels:
[1] = compound: CC(=O)c1c(C)c2cnc(Nc3ccc(N4CCNCC4)cn3)nc2n(C2CCCC2)c1=O; experiment: surviving fraction relative to DMSO-only wells; higher = less growth inhibition; conditions: exposure time: 5 days
Method in brief: (§1)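 For each tumour cell line, log-phase cells were put into 384-well plates at 250–500 cells per well, then after 24 hours exposed continuously for five days to inhibitors at 0.5, 1, 5, 10, 50, 100, 500 and 1000 nM. Viability was assessed by CellTiter-Glo luminescence, with surviving fraction expressed relative to the median of DMSO-only wells. Lines were screened three times and retained only if replicate Pearson r exceeded 0.7 and median Z' exceeded 0.3.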

[2] = compound: CC(=O)NCC(=O)N1[C@@H]2CC[C@H]1c1ccc(Nc3ncc(C(F)(F)F)c(NC4CCC4)n3)cc12; experiment: as above; conditions: exposure time: 5 days
Method in brief: as §1

S68 BREAST
surviving fraction ([1]; 0.5 nM): 0.75 ± 0.08 | surviving fraction ([1]; 1 nM): 0.809 ± 0.025 | surviving fraction ([1]; 5 nM): 1.13 ± 0.062 | surviving fraction ([1]; 10 nM): 1.18 ± 0.033 | surviving fraction ([1]; 50 nM): 1.01 ± 0.091 | surviving fraction ([1]; 100 nM): 1.19 ± 0.2 | surviving fraction ([1]; 500 nM): 0.744 ± 0.043 | surviving fraction ([1]; 1000 nM): 0.79 ± 0.29 | surviving fraction ([2]; 0.5 nM): 0.875 ± 0.16 | surviving fraction ([2]; 1 nM): 0.86 ± 0.083 | surviving fraction ([2]; 5 nM): 0.973 ± 0.18 | surviving fraction ([2]; 10 nM): 0.946 ± 0.11 | surviving fraction ([2]; 50 nM): 0.487 ± 0.057 | surviving fraction ([2]; 100 nM): 0.472 ± 0.024 | surviving fraction ([2]; 500 nM): 0.529 ± 0.081 | surviving fraction ([2]; 1000 nM): 0.466 ± 0.13

SAOS2 BONE
surviving fraction ([1]; 0.5 nM): 1.07 ± 0.062 | surviving fraction ([1]; 1 nM): 1.06 ± 0.034 | surviving fraction ([1]; 5 nM): 1.13 ± 0.051 | surviving fraction ([1]; 10 nM): 1.09 ± 0.037 | surviving fraction ([1]; 50 nM): 1.1287 ± 0.00058 | surviving fraction ([1]; 100 nM): 1.138 ± 0.0069 | surviving fraction ([1]; 500 nM): 1.13 ± 0.065 | surviving fraction ([1]; 1000 nM): 1.07 ± 0.013 | surviving fraction ([2]; 0.5 nM): 1.03 ± 0.017 | surviving fraction ([2]; 1 nM): 1.045 ± 0.0052 | surviving fraction ([2]; 5 nM): 1.08 ± 0.069 | surviving fraction ([2]; 10 nM): 1.06 ± 0.092 | surviving fraction ([2]; 50 nM): 1.03 ± 0.065 | surviving fraction ([2]; 100 nM): 0.704 ± 0.049 | surviving fraction ([2]; 500 nM): 0.157 ± 0.0075 | surviving fraction ([2]; 1000 nM): 0.0957 ± 0.0029

SCC003 HEADNECK
surviving fraction ([1]; 0.5 nM): 1.12 ± 0.06 | surviving fraction ([1]; 1 nM): 1.02 ± 0.064 | surviving fraction ([1]; 5 nM): 1.11 ± 0.036 | surviving fraction ([1]; 10 nM): 1.08 ± 0.086 | surviving fraction ([1]; 50 nM): 1.13 ± 0.14 | surviving fraction ([1]; 100 nM): 1.08 ± 0.076 | surviving fraction ([1]; 500 nM): 1.06 ± 0.081 | surviving fraction ([1]; 1000 nM): 0.884 ± 0.084 | surviving fraction ([2]; 0.5 nM): 0.911 ± 0.056 | surviving fraction ([2]; 1 nM): 0.889 ± 0.096 | surviving fraction ([2]; 5 nM): 1.05 ± 0.06 | surviving fraction ([2]; 10 nM): 1.02 ± 0.027 | surviving fraction ([2]; 50 nM): 0.988 ± 0.043 | surviving fraction ([2]; 100 nM): 0.636 ± 0.063 | surviving fraction ([2]; 500 nM): 0.425 ± 0.035 | surviving fraction ([2]; 1000 nM): 0.397 ± 0.076

SCC36 HEADNECK
surviving fraction ([1]; 0.5 nM): 1.02 ± 0.1 | surviving fraction ([1]; 1 nM): 1.01 ± 0.015 | surviving fraction ([1]; 5 nM): 1.17 ± 0.064 | surviving fraction ([1]; 10 nM): 1.11 ± 0.056 | surviving fraction ([1]; 50 nM): 1.1 ± 0.084 | surviving fraction ([1]; 100 nM): 1.07 ± 0.025 | surviving fraction ([1]; 500 nM): 0.923 ± 0.094 | surviving fraction ([1]; 1000 nM): 0.897 ± 0.025 | surviving fraction ([2]; 0.5 nM): 1.01 ± 0.1 | surviving fraction ([2]; 1 nM): 1.04 ± 0.15 | surviving fraction ([2]; 5 nM): 1.13 ± 0.16 | surviving fraction ([2]; 10 nM): 1.12 ± 0.066 | surviving fraction ([2]; 50 nM): 0.945 ± 0.12 | surviving fraction ([2]; 100 nM): 0.731 ± 0.052 | surviving fraction ([2]; 500 nM): 0.428 ± 0.048 | surviving fraction ([2]; 1000 nM): 0.431 ± 0.051

SCC90 HEADNECK
surviving fraction ([1]; 0.5 nM): 1.092 ± 0.0083 | surviving fraction ([1]; 1 nM): 1.1 ± 0.11 | surviving fraction ([1]; 5 nM): 1.12 ± 0.1 | surviving fraction ([1]; 10 nM): 1.15 ± 0.025 | surviving fraction ([1]; 50 nM): 1.06 ± 0.042 | surviving fraction ([1]; 100 nM): 1.19 ± 0.14 | surviving fraction ([1]; 500 nM): 1.12 ± 0.056 | surviving fraction ([1]; 1000 nM): 1.13 ± 0.13 | surviving fraction ([2]; 0.5 nM): 0.769 ± 0.12 | surviving fraction ([2]; 1 nM): 0.816 ± 0.048 | surviving fraction ([2]; 5 nM): 0.936 ± 0.035 | surviving fraction ([2]; 10 nM): 0.991 ± 0.089 | surviving fraction ([2]; 50 nM): 0.66 ± 0.13 | surviving fraction ([2]; 100 nM): 0.62 ± 0.084 | surviving fraction ([2]; 500 nM): 0.665 ± 0.048 | surviving fraction ([2]; 1000 nM): 0.613 ± 0.017

SG27 HEADNECK
surviving fraction ([1]; 0.5 nM): 1.18 ± 0.081 | surviving fraction ([1]; 1 nM): 1.07 ± 0.1 | surviving fraction ([1]; 5 nM): 1.02 ± 0.025 | surviving fraction ([1]; 10 nM): 0.956 ± 0.086 | surviving fraction ([1]; 50 nM): 1.08 ± 0.15 | surviving fraction ([1]; 100 nM): 1.09 ± 0.1 | surviving fraction ([1]; 500 nM): 1.06 ± 0.048 | surviving fraction ([1]; 1000 nM): 1.1 ± 0.33 | surviving fraction ([2]; 0.5 nM): 1.04 ± 0.03 | surviving fraction ([2]; 1 nM): 1.05 ± 0.042 | surviving fraction ([2]; 5 nM): 0.868 ± 0.14 | surviving fraction ([2]; 10 nM): 1.04 ± 0.079 | surviving fraction ([2]; 50 nM): 0.948 ± 0.054 | surviving fraction ([2]; 100 nM): 0.872 ± 0.043 | surviving fraction ([2]; 500 nM): 0.843 ± 0.061 | surviving fraction ([2]; 1000 nM): 0.919 ± 0.05

SG28 HEADNECK
surviving fraction ([1]; 0.5 nM): 1.1 ± 0.069 | surviving fraction ([1]; 1 nM): 1.1 ± 0.13 | surviving fraction ([1]; 5 nM): 1.08 ± 0.15 | surviving fraction ([1]; 10 nM): 0.955 ± 0.05 | surviving fraction ([1]; 50 nM): 1.02 ± 0.16 | surviving fraction ([1]; 100 nM): 1.02 ± 0.13 | surviving fraction ([1]; 500 nM): 1 ± 0.058 | surviving fraction ([1]; 1000 nM): 1.07 ± 0.051 | surviving fraction ([2]; 0.5 nM): 1.06 ± 0.12 | surviving fraction ([2]; 1 nM): 1.03 ± 0.036 | surviving fraction ([2]; 5 nM): 0.972 ± 0.15 | surviving fraction ([2]; 10 nM): 0.991 ± 0.13 | surviving fraction ([2]; 50 nM): 0.949 ± 0.11 | surviving fraction ([2]; 100 nM): 0.828 ± 0.015 | surviving fraction ([2]; 500 nM): 0.682 ± 0.048 | surviving fraction ([2]; 1000 nM): 0.601 ± 0.075

SG31 HEADNECK
surviving fraction ([1]; 0.5 nM): 1.22 ± 0.17 | surviving fraction ([1]; 1 nM): 1.08 ± 0.19 | surviving fraction ([1]; 5 nM): 0.988 ± 0.21 | surviving fraction ([1]; 10 nM): 0.911 ± 0.13 | surviving fraction ([1]; 50 nM): 0.976 ± 0.071 | surviving fraction ([1]; 100 nM): 0.977 ± 0.24 | surviving fraction ([1]; 500 nM): 1.08 ± 0.13 | surviving fraction ([1]; 1000 nM): 1.14 ± 0.19 | surviving fraction ([2]; 0.5 nM): 0.909 ± 0.13 | surviving fraction ([2]; 1 nM): 1.05 ± 0.18 | surviving fraction ([2]; 5 nM): 1.03 ± 0.26 | surviving fraction ([2]; 10 nM): 0.808 ± 0.041 | surviving fraction ([2]; 50 nM): 0.913 ± 0.052 | surviving fraction ([2]; 100 nM): 0.705 ± 0.069 | surviving fraction ([2]; 500 nM): 0.749 ± 0.076 | surviving fraction ([2]; 1000 nM): 0.717 ± 0.1

SG32 HEADNECK
surviving fraction ([1]; 0.5 nM): 1.05 ± 0.16 | surviving fraction ([1]; 1 nM): 1.31 ± 0.3 | surviving fraction ([1]; 5 nM): 1.2 ± 0.11 | surviving fraction ([1]; 10 nM): 1.09 ± 0.082 | surviving fraction ([1]; 50 nM): 0.942 ± 0.11 | surviving fraction ([1]; 100 nM): 0.993 ± 0.16 | surviving fraction ([1]; 500 nM): 0.699 ± 0.059 | surviving fraction ([1]; 1000 nM): 0.721 ± 0.03 | surviving fraction ([2]; 0.5 nM): 1.19 ± 0.078 | surviving fraction ([2]; 1 nM): 1.02 ± 0.12 | surviving fraction ([2]; 5 nM): 0.952 ± 0.044 | surviving fraction ([2]; 10 nM): 1.14 ± 0.031 | surviving fraction ([2]; 50 nM): 0.758 ± 0.26 | surviving fraction ([2]; 100 nM): 0.474 ± 0.036 | surviving fraction ([2]; 500 nM): 0.432 ± 0.095 | surviving fraction ([2]; 1000 nM): 0.398 ± 0.023

SG43 HEADNECK
surviving fraction ([1]; 0.5 nM): 0.92 ± 0.039 | surviving fraction ([1]; 1 nM): 1 ± 0.12 | surviving fraction ([1]; 5 nM): 0.862 ± 0.16 | surviving fraction ([1]; 10 nM): 0.855 ± 0.059 | surviving fraction ([1]; 50 nM): 0.73 ± 0.11 | surviving fraction ([1]; 100 nM): 0.745 ± 0.12 | surviving fraction ([1]; 500 nM): 1.02 ± 0.12 | surviving fraction ([1]; 1000 nM): 0.766 ± 0.28 | surviving fraction ([2]; 0.5 nM): 1.01 ± 0.065 | surviving fraction ([2]; 1 nM): 1.18 ± 0.26 | surviving fraction ([2]; 5 nM): 0.8 ± 0.25 | surviving fraction ([2]; 10 nM): 0.923 ± 0.17 | surviving fraction ([2]; 50 nM): 0.703 ± 0.22 | surviving fraction ([2]; 100 nM): 0.682 ± 0.093 | surviving fraction ([2]; 500 nM): 0.579 ± 0.039 | surviving fraction ([2]; 1000 nM): 0.569 ± 0.069
